We go through one molecule from patent US4608338A, “Process for bioconversion-product recovery” (Celanese Corporation, priority 1982, dated 1986).

Data set [1] in a line: solubility of muconic acid in acidified aqueous fermentation medium. It counts as physicochemical. To be noted: pH of 1-2, 20° C. The protocol: Under optimal conditions, the muconic acid accumulation limit can approach up to about 50 grams of muconic acid per liter of growth medium. The microbiological oxidation step of the present invention process normally is conducted at ambient temperatures up to about 31° C. The muconic acid at a concentration between about 10-45 grams/liter in the cell-free ammonia-neutralized aqueous fermentation medium is precipitated with sulfuric acid or phosphoric acid. The precipitated muconic acid (solubility at pH of 1-2, about 0.07% at 20° C.) is filtered, washed and dried. In a further embodiment of the present invention, the muconic acid is admixed with a solvent medium such as acetic acid (e.g., to form a 40 weight percent muconic acid/acetic acid slurry solution), and then treated under hydrogenation conditions to yield adipic acid.

The nature of data set [2]: solubility of muconic acid at pH 1.0 (Example III B, precipitation from regular "NO" medium). In kind it is physicochemical. The method, then:
To 500 ml of regular "NO" medium are added 15 grams of cis, cis-muconic acid. The pH of the solution is about […]. A 14.2 ml quantity of concentrated NH4 OH solution (15N) is added to adjust the pH to 6.2.
To the neutralized solution is added a 17 ml quantity of concentrated H2 SO4 solution, which lowers the pH of the solution to 0.99. White solids precipitate from the solution, and the solids are filtered, washed and recovered as muconic acid (quantitative recovery; solubility of muconic acid at pH 1.0 is 0.03 wt %).

As to `O=C(O)/C=C\C=C/C(=O)O` [muconic acid, cis, cis-muconic acid], the solubility entry is reported as “about 0.07%” in data set [1] and 0.03 wt % in data set [2].
